{"source": "patent US20240245673A1", "about": "“Papain-like protease (PLpro) inhibitors” (Pfizer Inc., priority 2022, published 2024)", "molecular_target": "SARS-CoV-2 Papain like protease (PLpro) (Severe acute respiratory syndrome coronavirus 2 (2019-nCoV) (SARS-CoV-2), UniProt P0DTD1)", "experiment": "Papain Like Protease (PLpro) biochemical assay with profluorogenic substrate Z-RLRGG-AMC", "settings": "SARS-CoV-2 PLpro 6.25 nM, 25 μM Z-RLRGG-AMC substrate, 60 minute reaction; read-out: IC50"}
{"compound": "Cc1cc(CC(=O)Nc2cncs2)ccc1C(=O)N[C@H](C)c1cc(-c2cnn(C)c2)nc2ccccc12", "note": "[Example 237, (R)-2-methyl-N-(1-(2-(1-methyl-1H-pyrazol-4-yl)quinolin-4-yl)ethyl)-4-(2-oxo-2-(thiazol-5-ylamino)ethyl)benzamide]", "values": [{"measurement": "IC50", "result": 36, "unit": "nM"}]}
{"compound": "Cc1ccccc1C(=O)N[C@H](C)c1cc(-c2cnoc2)nc2ccccc12", "note": "[Example 58, (R)-N-(1-(2-(isoxazol-4-yl)quinolin-4-yl)ethyl)-2-methylbenzamide]", "values": [{"measurement": "IC50", "result": 100000, "unit": "nM"}]}
{"compound": "CCCc1cc(C(C)NC(=O)c2ccccc2C)c2ccccc2n1", "note": "(stereo in doubt) [Example 153, 2-methyl-N-[(1R)-1-(2-propylquinolin-4-yl)ethyl]benzamide]", "values": [{"measurement": "IC50", "result": 311, "unit": "nM"}]}
{"compound": "Cc1ccccc1C(=O)N[C@H](C)c1cc(-c2ccn[nH]2)nc2ccccc12", "note": "[Example 48, (R)—N-(1-(2-(1H-pyrazol-5-yl)quinolin-4-yl)ethyl)-2-methylbenzamide]", "values": [{"measurement": "IC50", "result": 280, "unit": "nM"}]}
{"compound": "Cc1cc(CN(C)C(=O)c2cscn2)ccc1C(=O)N[C@H](C)c1cc(-c2cnn(C)c2)nc2ccccc12", "note": "[Example 264, (R)-N-methyl-N-(3-methyl-4-((1-(2-(1-methyl-1H-pyrazol-4-yl)quinolin-4-yl)ethyl)carbamoyl)benzyl)thiazole-4-carboxamide]", "values": [{"measurement": "IC50", "result": 22, "unit": "nM"}]}
{"compound": "Cc1cc(C[S+]([O-])Cc2nccn2C)ccc1C(=O)N[C@H](C)c1cc(-c2cnn(C)c2)nc2ccccc12", "note": "(stereo partly drawn) [Example 283, 2-methyl-4-((((1-methyl-1H-imidazol-2-yl)methyl)sulfinyl)methyl)-N—((R)-1-(2-(1-methyl-1H-pyrazol-4-yl)quinolin-4-yl)ethyl)benzamide]", "values": [{"measurement": "IC50", "result": 5, "unit": "nM"}]}
{"compound": "Cc1ccccc1C(=O)NC(C)c1cc(-c2ccc3ncnn3c2)nc2ccccc12", "note": "(stereo not shown) [Example 118, 2-methyl-N-{1-[2-([1,2,4]triazolo[1,5-a]pyridin-6-yl)quinolin-4-yl]ethyl}benzamide]", "values": [{"measurement": "IC50", "result": 1320, "unit": "nM"}]}
{"compound": "Cc1cc(COCc2cscn2)ccc1C(=O)NC1(c2cc(-c3cnn(CCC(=O)N(C)C)c3)nc3ccccc23)CC1", "note": "[Example 362]", "values": [{"measurement": "IC50", "result": "< 1", "unit": "nM"}]}
{"compound": "Cc1ccc(CN)cc1C(=O)N[C@H](C)c1cc(-c2cc(C(N)=O)c[nH]2)nc2ccccc12", "note": "[Example 21, (R)-5-(4-(1-(5-(aminomethyl)-2-methylbenzamido)ethyl)quinolin-2-yl)-1H-pyrrole-3-carboxamide]", "values": [{"measurement": "IC50", "result": 16, "unit": "nM"}]}
{"compound": "Cc1cc(C(=O)N(C)Cc2cscn2)ccc1C(=O)N[C@H](C)c1cc(-c2cnn(C)c2)nc2ccccc12", "note": "[Example 243]", "values": [{"measurement": "IC50", "result": 77, "unit": "nM"}]}
{"compound": "Cc1ccccc1C(=O)NC(C)c1cc(-c2ccc3nonc3c2)nc2ccccc12", "note": "(stereo not shown) [Example 111, N-{1-[2-(2,1,3-benzoxadiazol-5-yl)quinolin-4-yl]ethyl}-2-methylbenzamide]", "values": [{"measurement": "IC50", "result": 17300, "unit": "nM"}]}
{"compound": "C[C@@H](NC(=O)c1ccccc1CCC(=O)NNC(=O)/C=C/C(=O)N(C)C)c1cc(-c2cnn(C)c2)nc2ccccc12", "note": "[Example 234, (R,E)-2-(3-(2-(4-(dimethylamino)-4-oxobut-2-enoyl)hydrazineyl)-3-oxopropyl)-N-(1-(2-(1-methyl-1H-pyrazol-4-yl)quinolin-4-yl)ethyl)benzamide]", "values": [{"measurement": "IC50", "result": 128, "unit": "nM"}]}
{"compound": "COC[C@H](OCc1cscn1)c1ccc(C(=O)N[C@H](C)c2cc(-c3cnn(C)c3)nc3ccccc23)c(C)c1", "note": "(single isomer, unassigned) [Example 333, 4-((R*)-2-methoxy-1-(thiazol-4-ylmethoxy)ethyl)-2-methyl-N-((R)-1-(2-(1-methyl-1H-pyrazol-4-yl)quinolin-4-yl)ethyl)benzamide]", "values": [{"measurement": "IC50", "result": "< 1", "unit": "nM"}]}
{"compound": "COC(=O)c1c[nH]c(-c2cc(C(C)NC(=O)c3ccccc3C)c3ccccc3n2)c1", "note": "(stereo not shown) [Example 128, methyl 5-{4-[1-(2-methylbenzamido)ethyl]quinolin-2-yl}-1H-pyrrole-3-carboxylate]", "values": [{"measurement": "IC50", "result": 164, "unit": "nM"}]}
{"compound": "Cc1ccccc1C(=O)NC(C)c1cc(-c2cncnc2)nc2ccccc12", "note": "(stereo not shown) [Example 130, 2-methyl-N-{1-[2-(pyrimidin-5-yl)quinolin-4-yl]ethyl} benzamide]", "values": [{"measurement": "IC50", "result": 3100, "unit": "nM"}]}
{"compound": "Cc1ccc(C(N)=O)cc1C(=O)NC(C)c1cc(-n2ccnn2)cc2ccccc12", "note": "(stereo not shown) [Example 1, N^1-(1-(3-(1H-1,2,3-triazol-1-yl)naphthalen-1-yl)ethyl)-6-methylisophthalamide]", "values": [{"measurement": "IC50", "result": 1790, "unit": "nM"}]}
{"compound": "Cc1ccc(NC(=O)[C@H]2CCCCN2)cc1C(=O)N[C@H](C)c1cc(-c2cnn(C)c2)cc2ccccc12", "note": "(single isomer, unassigned) [Example 67]", "values": [{"measurement": "IC50", "result": 272, "unit": "nM"}]}
{"compound": "Cc1ccccc1C(=O)NC(C)c1cc(-c2cncc(F)c2)nc2ccccc12", "note": "(stereo not shown) [Example 137, N-{1-[2-(5-fluoropyridin-3-yl)quinolin-4-yl]ethyl}-2-methylbenzamide]", "values": [{"measurement": "IC50", "result": 1130, "unit": "nM"}]}
{"compound": "Cc1cc(C(=O)NC(C)(C)c2ncc[nH]2)ccc1C(=O)N[C@H](C)c1cc(-c2cnn(C)c2)nc2ccccc12", "note": "[Example 244]", "values": [{"measurement": "IC50", "result": 167, "unit": "nM"}]}
{"compound": "Cc1ccc(CN)cc1C(=O)NC(C)c1cc(-c2cc(C(=O)N(C)C)c[nH]2)cc2ccccc12", "note": "(stereo not shown) [Example 72, 5-(4-(1-(5-(aminomethyl)-2-methylbenzamido)ethyl)naphthalen-2-yl)-N,N-dimethyl-1H-pyrrole-3-carboxamide]", "values": [{"measurement": "IC50", "result": 13, "unit": "nM"}]}
{"compound": "Cc1ccc(NC(=O)[C@H]2CCCCN2)cc1C(=O)N[C@H](C)c1cc(-n2ccnn2)nc2ccccc12", "note": "(single isomer, unassigned) [Example 29, (R)—N-(3-(((R*)-1-(2-(1H-1,2,3-triazol-1-yl)quinolin-4-yl)ethyl)carbamoyl)-4-methylphenyl)piperidine-2-carboxamide]", "values": [{"measurement": "IC50", "result": 100, "unit": "nM"}]}
{"compound": "Cc1ccc(NC(=O)[C@H]2CCCCN2)cc1C(=O)N[C@H](C)c1cc(N)nc2ccccc12", "note": "(single isomer, unassigned) [Example 28, (R)—N-(3-(((R*)-1-(2-aminoquinolin-4-yl)ethyl)carbamoyl)-4-methylphenyl) piperidine-2-carboxamide]", "values": [{"measurement": "IC50", "result": 5450, "unit": "nM"}]}
{"compound": "Cn1cc(-c2cc(C3(NC(=O)c4ccccc4CCC(=O)NNC(=O)/C=C/C(N)=O)CC3)c3ccccc3n2)cn1", "note": "[Example 226, (E)-2-(3-(2-(4-amino-4-oxobut-2-enoyl)hydrazineyl)-3-oxopropyl)-N-(1-(2-(1-methyl-1H-pyrazol-4-yl)quinolin-4-yl)cyclopropyl)benzamide]", "values": [{"measurement": "IC50", "result": 17, "unit": "nM"}]}
{"compound": "Cc1cc(C(=O)NC2(c3cscn3)CC2)ccc1C(=O)N[C@H](C)c1cc(-c2cnn(C)c2)nc2ccccc12", "note": "[Example 314, (R)-2-methyl-N1-(1-(2-(1-methyl-1H-pyrazol-4-yl)quinolin-4-yl)ethyl)-N4-(1-(thiazol-4-yl)cyclopropyl)terephthalamide]", "values": [{"measurement": "IC50", "result": 2, "unit": "nM"}]}
{"compound": "Cc1cc(COCc2cscn2)ccc1C(=O)NC1(c2cc(-c3cc(C(=O)N(C)CC(C)(C)O)n[nH]3)nc3ccccc23)CC1", "note": "[Example 357, N-(2-hydroxy-2-methylpropyl)-N-methyl-5-(4-(1-(2-methyl-4-((thiazol-4-ylmethoxy)methyl)benzamido)cyclopropyl)quinolin-2-yl)-1H-pyrazole-3-carboxamide]", "values": [{"measurement": "IC50", "result": "< 1", "unit": "nM"}]}
{"compound": "Cc1cc(CNCc2cscn2)ccc1C(=O)N[C@H](C)c1cc(-c2cnn(C)c2)nc2ccccc12", "note": "[Example 74, (R)-2-methyl-N-(1-(2-(1-methyl-1H-pyrazol-4-yl)quinolin-4-yl)ethyl)-4-(((thiazol-4-ylmethyl)amino)methyl)benzamide]", "values": [{"measurement": "IC50", "result": 8, "unit": "nM"}]}
{"compound": "Cc1ccc(N2C[C@H]3C[C@@H]2CN3C)cc1C(=O)N[C@H](C)c1cc(-c2cnn(C)c2)nc2ccccc12", "note": "(single isomer, unassigned) [Example 280, 2-methyl-N—((R)-1-(2-(1-methyl-1H-pyrazol-4-yl)quinolin-4-yl)ethyl)-5-((1R*,4R*)-5-methyl-2,5-diazabicyclo[2.2.1]heptan-2-yl)benzamide]", "values": [{"measurement": "IC50", "result": 17, "unit": "nM"}]}
{"compound": "COC(=O)/C=C/C(=O)NNC(=O)CCc1ccccc1C(=O)NC(C)c1cc(-c2cnn(C)c2)cc2ccccc12", "note": "(stereo not shown) [Example 64, methyl (E)-4-(2-(3-(2-((1-(3-(1-methyl-1H-pyrazol-4-yl)naphthalen-1-yl)ethyl)carbamoyl)phenyl)propanoyl)hydrazineyl)-4-oxobut-2-enoate]", "values": [{"measurement": "IC50", "result": 5, "unit": "nM"}]}
{"compound": "Cc1ccc(CN)cc1C(=O)N[C@H](C)c1cc(-c2cnn(C)c2)cc2ccccc12", "note": "(single isomer, unassigned) [Example 8]", "values": [{"measurement": "IC50", "result": 25, "unit": "nM"}]}
{"compound": "Cc1ccccc1C(=O)NC(C)c1cc(-c2cnn(C(C)(C)C)c2)nc2ccccc12", "note": "(stereo not shown) [Example 113, N-{1-[2-(1-tert-butyl-1H-pyrazol-4-yl)quinolin-4-yl]ethyl}-2-methylbenzamide]", "values": [{"measurement": "IC50", "result": 790, "unit": "nM"}]}
{"compound": "Cc1ccc(CN)cc1C(=O)N[C@H](C)c1cc(-c2cc(C(=O)N(C)C)n(C)c2)nc2ccccc12", "note": "[Example 258, (R)-4-(4-(1-(5-(aminomethyl)-2-methylbenzamido)ethyl)quinolin-2-yl)-N,N,1-trimethyl-1H-pyrrole-2-carboxamide]", "values": [{"measurement": "IC50", "result": 44, "unit": "nM"}]}
{"compound": "Cc1cc(CC(=O)Nc2cscn2)ccc1C(=O)NC1(c2cc(-c3cnn(C)c3)nc3ccccc23)CC1", "note": "[Example 313, 2-methyl-N-(1-(2-(1-methyl-1H-pyrazol-4-yl)quinolin-4-yl)cyclopropyl)-4-(2-oxo-2-(thiazol-4-ylamino)ethyl)benzamide]", "values": [{"measurement": "IC50", "result": 4, "unit": "nM"}]}
{"compound": "CNC(=O)c1c[nH]c(-c2cc(C(C)NC(=O)c3cc(CN)ccc3C)c3ccccc3c2)c1", "note": "(stereo not shown) [Example 71, 5-(4-(1-(5-(aminomethyl)-2-methylbenzamido)ethyl)naphthalen-2-yl)-N-methyl-1H-pyrrole-3-carboxamide]", "values": [{"measurement": "IC50", "result": 16, "unit": "nM"}]}
{"compound": "Cc1ccccc1C(=O)NC(C)c1cc(NCc2cnco2)nc2ccccc12", "note": "(stereo not shown) [Example 139, 2-methyl-N-[1-(2-{[(1,3-oxazol-5-yl)methyl]amino}-quinolin-4-yl)ethyl]benzamide]", "values": [{"measurement": "IC50", "result": 675, "unit": "nM"}]}
{"compound": "Cc1ccccc1C(=O)NC(C)c1cc(NCc2cocn2)nc2ccccc12", "note": "(stereo not shown) [Example 138, 2-methyl-N-[1-(2-{[(1,3-oxazol-4-yl)methyl]amino}-quinolin-4-yl)ethyl]benzamide]", "values": [{"measurement": "IC50", "result": 944, "unit": "nM"}]}
{"compound": "Cc1ccccc1C(=O)NC(C)c1cc(-c2cn(C(C)C)nc2C)nc2ccccc12", "note": "(stereo not shown) [Example 136, 2-methyl-N-(1-{2-[3-methyl-1-(propan-2-yl)-1H-pyrazol-4-yl]quinolin-4-yl}ethyl) benzamide]", "values": [{"measurement": "IC50", "result": 1410, "unit": "nM"}]}
{"compound": "Cc1ccc(CNS(C)(=O)=O)cc1C(=O)N[C@H](C)c1cc(-c2cnn(C)c2)nc2ccccc12", "note": "[Example 61]", "values": [{"measurement": "IC50", "result": 46, "unit": "nM"}]}
